Test results reported in ChEMBL document CHEMBL5137017, “Identification of NVP-CLR457 as an Orally Bioavailable Non-CNS-Penetrant pan-Class IA Phosphoinositol-3-Kinase Inhibitor” (J Med Chem, 2022).
Calls of active or inactive are those of the source. The rule behind the calls is not given here.

Experiments:
[1] = molecular target: T1, Serine/threonine-protein kinase mTOR (Homo sapiens, UniProt P42345); test: Displacement of Alexa Fluor labelled Tracer-314 from human N-terminal GST-tagged mTOR incubated for 1 hr by TR-FRET assay
[2] = cells; details: Rattus norvegicus, Rat1, 1 h
[3] = molecular target: T2, Tubulin (Homo sapiens) (UniProt P68371+Q9H4B7+P0DPH7+P68366+Q13509+Q71U36+P04350+Q3ZCM7+P07437+P68363+Q9BQE3+Q6PEY2+Q13885+Q9BVA1+Q9BUF5); test: Binding affinity to tubulin in human A2058 cells assessed as condensed DNA score at 5 uM measured after 6 hrs by DiffQuick staining based microscopic analysis; type: cell-based
[4] = molecular target: T2, Tubulin (Homo sapiens); test: Binding affinity to tubulin in human A2058 cells assessed as condensed DNA score at 5 uM measured after 24 hrs by DiffQuick staining based microscopic analysis; type: cell-based
[5] = Brain to blood ratio in OF1 mouse at 1 mg/kg, iv measured at 5 mins post dose by LC-MS/MS analysis; type: ADME, organism-based; details: brain and blood, read-out: BBR
[6] = Brain to blood ratio in OF1 mouse at 1 mg/kg, iv measured at 1 hr post dose by LC-MS/MS analysis; type: ADME, organism-based; details: brain and blood, read-out: BBR
[7] = Drug concentration in OF1 mouse blood at 1 mg/kg, iv measured at 5 mins post dose by LC-MS/MS analysis; type: ADME, organism-based; details: whole blood, read-out: Ct
[8] = Drug concentration in OF1 mouse blood at 1 mg/kg, iv measured at 1 hr post dose by LC-MS/MS analysis; type: ADME, organism-based; details: whole blood, read-out: Ct
[9] = Drug concentration in OF1 mouse brain at 1 mg/kg, iv measured at 5 mins post dose by LC-MS/MS analysis; type: ADME, organism-based; details: in vivo
[10] = Drug concentration in OF1 mouse brain at 1 mg/kg, iv measured at 1 hr post dose by LC-MS/MS analysis; type: ADME, organism-based; details: in vivo
[11] = Stability in mouse liver microsomes assessed as hepatic extraction preincubated for 3 mins followed by NADPH addition and measured after 60 mins; type: ADME, Microsome; details: time 63 min, read-out: ERH
[12] = Stability in rat liver microsomes assessed as hepatic extraction preincubated for 3 mins followed by NADPH addition and measured after 60 mins; type: ADME, Microsome; details: read-out: ERH
[13] = Stability in human liver microsomes assessed as hepatic extraction preincubated for 3 mins followed by NADPH addition and measured after 60 mins; type: ADME, Microsome; details: read-out: ERH
[14] = Volume of distribution at steady state in Sprague-Dawley rat at 3 mg/kg, po or iv measured upto 24 hrs by LC-MS/MS analysis; type: ADME, organism-based; details: in vivo
[15] = Half life in Sprague-Dawley rat at 3 mg/kg, po or iv measured upto 24 hrs by LC-MS/MS analysis; type: ADME, organism-based; details: in vivo
[16] = AUC in Sprague-Dawley rat at 1 mg/kg, iv measured for 0.083 to 48 hrs by LC-MS/MS analysis; type: ADME, organism-based; set-up: time upper 48 hrs, dose 1 mg/kg, time lower 0.083 hrs, route iv; details: in vivo
[17] = Oral bioavailability in Sprague-Dawley rat at 3 mg/kg measured for 0.25 to 24 hrs by LC-MS/MS analysis; type: ADME, organism-based; details: in vivo, time 0.25-24 hrs
[18] = tested on: A2780; test: Induction of cell cycle arrest in human A2780 cells assessed as G2/M marker expression level at 30 uM measured after 6 hr by immunofluorescence staining method; type: functional, cell-based
[19] = molecular target: Tubulin (Sus scrofa) (UniProt P02554+P02550); test: Inhibition of porcine tubulin polymerization assessed as inhibition of microtubule polymerization at 15 to 30 uM measured after 1 hr; type: protein assay; details: dose 15-30 µM, DDE = dose-dependent effect
Tubulin (Sus scrofa), sequence (P02550 whole entry, looked up): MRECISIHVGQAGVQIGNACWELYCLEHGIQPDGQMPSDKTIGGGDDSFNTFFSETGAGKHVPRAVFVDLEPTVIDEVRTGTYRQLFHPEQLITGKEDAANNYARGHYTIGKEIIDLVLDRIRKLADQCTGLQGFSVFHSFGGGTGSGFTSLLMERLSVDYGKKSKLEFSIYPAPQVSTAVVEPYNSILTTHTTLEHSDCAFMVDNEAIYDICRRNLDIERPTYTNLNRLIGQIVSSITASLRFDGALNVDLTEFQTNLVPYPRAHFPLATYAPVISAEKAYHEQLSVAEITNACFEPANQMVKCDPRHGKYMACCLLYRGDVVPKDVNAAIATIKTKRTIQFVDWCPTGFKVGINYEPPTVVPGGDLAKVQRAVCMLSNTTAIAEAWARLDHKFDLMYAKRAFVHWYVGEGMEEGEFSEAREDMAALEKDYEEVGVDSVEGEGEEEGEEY
Tubulin (Sus scrofa), sequence (P02554 whole entry, looked up): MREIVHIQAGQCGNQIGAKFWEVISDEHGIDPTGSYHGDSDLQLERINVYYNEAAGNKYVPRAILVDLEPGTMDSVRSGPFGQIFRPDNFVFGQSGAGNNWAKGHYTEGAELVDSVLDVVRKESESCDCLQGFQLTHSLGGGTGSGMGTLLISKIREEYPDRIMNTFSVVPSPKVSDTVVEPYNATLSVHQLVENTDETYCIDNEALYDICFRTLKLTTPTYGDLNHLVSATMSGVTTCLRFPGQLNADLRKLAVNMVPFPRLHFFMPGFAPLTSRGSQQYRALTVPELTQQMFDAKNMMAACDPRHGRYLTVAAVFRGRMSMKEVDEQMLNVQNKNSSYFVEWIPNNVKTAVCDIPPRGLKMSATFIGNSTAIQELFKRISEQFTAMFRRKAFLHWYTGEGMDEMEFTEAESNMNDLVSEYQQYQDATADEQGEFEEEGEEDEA

[20] = tested on: Rat1; test: Antitumor activity at rat Rat1 cells expressing myr-p110alpha xenografted in athymic nude mouse assessed as T/C ratio at 20 mg/kg, po bid measured after 14 to 22 days; type: functional; details: time 14-22 day
[21] = tested on: Rat1; test: Antitumor activity at rat Rat1 cells expressing myr-p110alpha xenografted in athymic nude mouse assessed as T/C ratio at 30 mg/kg, po bid measured after 14 to 22 days; type: functional; details: time 14-22 day
[22] = Toxicity in athymic nude mouse xenografted with rat Rat1 cells expressing myr-p110alpha assessed as body weight loss at 20 to 30 mg/kg, po bid measured for 7 to 15 days; type: organism-based; details: in vivo, dose lower 20 mg/kg, time lower 7 day, dose upper 30 mg/kg, time upper 15 day
[23] = tested on: Rat1; test: Antitumor activity at rat Rat1 cells expressing myr-p110delta xenografted in athymic nude mouse assessed as T/C ratio at 20 mg/kg, po bid measured after 7 to 15 days; type: functional; details: time 7-15 day
[24] = tested on: Rat1; test: Antitumor activity at rat Rat1 cells expressing myr-p110delta xenografted in athymic nude mouse assessed as T/C ratio at 30 mg/kg, po bid measured after 7 to 15 days; type: functional; details: time 7-15 day
[25] = Toxicity in athymic nude mouse xenografted with rat Rat1 cells expressing myr-p110delta assessed as body weight loss at 30 mg/kg, po bid measured for 7 to 15 days; type: organism-based; details: in vivo, time 7-15 day
[26] = Toxicity in athymic nude mouse xenografted with rat Rat1 cells expressing myr-p110delta assessed as drug tolerance at 20 mg/kg, po bid measured for 7 to 15 days; type: organism-based; details: in vivo, time 7-15 day
[27] = molecular target: T1, Serine/threonine-protein kinase mTOR; test: Binding affinity to human N-terminal GST-tagged mTOR assessed as phosphorylated 4EBP1 by TR-FRET assay
[28] = 1-octanol, logP of the compound at pH 7.4; type: physicochemical

Row | IC50 [1] [µM] | IC50 [2] [µM] | Activity [3] [%] | Activity [4] [%] | Structure (SMILES) | other results
1 | 6.2 | 1.47 | < 2 | < 2 | Nc1cc(C(F)(F)F)c(-c2cc(N3CCN(c4ccccc4)C3=O)nc(N3CCOCC3)n2)cn1 | –
2 | 2.88 | 0.028 | – | – | C[C@H]1COC(=O)N1c1nc(-c2cnc(N)nc2C(F)(F)F)cc(N2CCOCC2)n1 | Kp at 5 min [5]: 1.11; Kp at 1 h [6]: 0.9; concentration at 5 min [7]: 1640 nM; concentration at 1 h [8]: 616 nM; Ct [9]: 1813 pmol/g; Ct [10]: 553 pmol/g; hepatic extraction ratio at 1 h [11]: 0.27; hepatic extraction ratio at 1 h [12]: 0.67; hepatic extraction ratio at 1 h [13]: 0.54; Vdss [14]: 4.4 L/kg; half-life [15]: 1.2 h; AUC [16]: 0.762 µM·h; bioavailability [17]: 46%
3 | – | 0.081 | – | – | CC1(C)OC(=O)N(c2nc(-c3cnc(N)nc3C(F)(F)F)cc(N3CCOCC3)n2)[C@H]1CO | –
4 | – | 8.02 | – | – | Nc1cc(C(F)(F)F)c(-c2cc(N3CCOC[C@H]3CO)nc(N3CCOCC3)n2)cn1 | Kp at 5 min [5]: 0.31; Kp at 1 h [6]: 0.21
5 | 3.94 | 0.1 | – | – | C[C@H]1OC(=O)N(c2nc(-c3cnc(N)nc3C(F)(F)F)cc(N3CCOCC3)n2)[C@H]1CC#N | –
6 | – | 0.152 | – | – | Nc1ncc(-c2cc(N3CCCOC3=O)nc(N3CCOCC3)n2)c(C(F)(F)F)n1 | –

The next lines start with the compound.

Row | Structure (SMILES) | IC50 [1] [µM] | IC50 [2] [µM] | Activity [3] [%] | Activity [4] [%] | other results
7 | Nc1ncc(-c2cc(N3CCOCC3)nc(N3C(=O)O[C@@H]4COC[C@@H]43)n2)c(C(F)(F)F)n1 | 2 | 0.061 | – | – | –
8 | Nc1ncc(-c2cc(N3CCOCC3)nc(N3C[C@@H](CO)OC3=O)n2)c(C(F)(F)F)n1 | > 9.1 | 0.101 | – | – | –
9 | Nc1cc(C(F)(F)F)c(-c2cc(N3CCOCC3)nc(N3CCOCC3)n2)cn1 [BUPARLISIB] | – | – | > 12 | > 12 | Activity [18]: Active; Kp at 5 min [5]: 1.98; Kp at 1 h [6]: 1.74; inhibition [19]: Dde; T/C [20]: -0.15; T/C [21]: -0.61; Activity [22]: -7%; T/C [23]: 0.1; T/C [24]: 0.12; Activity [25]: -8%; Activity [26]: Toxic
10 | Nc1ncc(-c2cc(N3CCOC3=O)nc(N3CCOCC3)n2)c(C(F)(F)F)n1 | > 9.1 | 0.137 | – | – | –
11 | Cn1c(=O)n(-c2ccc(C(C)(C)C#N)cc2)c2c3cc(-c4cnc5ccccc5c4)ccc3ncc21 [DACTOLISIB] | – | 0.014 | < 2 | < 2 | –
12 | Nc1ncc(-c2cc(N3CCOCC3)nc(N3C[C@H](CO)OC3=O)n2)c(C(F)(F)F)n1 | 2.18 | 0.111 | – | – | –
13 | Nc1cc(C(F)(F)F)c(-c2cc(N3CCCCC3=O)nc(N3CCOCC3)n2)cn1 | 5.06 | 1.04 | < 2 | < 2 | –
14 | Nc1ncc(-c2cc(N3CCOCC3)nc(N3C(=O)OC[C@H]3CO)n2)c(C(F)(F)F)n1 | 5.94 | 0.18 | – | – | –
15 | CS(=O)(=O)N1CCN(Cc2cc3nc(-c4cccc5[nH]ncc45)nc(N4CCOCC4)c3s2)CC1 [PICTILISIB] | – | 0.044 | < 2 | < 2 | –
16 | Nc1cc(C(F)(F)F)c(-c2cc(N3CCOCC3)nc(N3CCOCC3)c2)cn1 | – | 2.83 | 6 | > 12 | IC50 [27]: > 9.1 µM
17 | Nc1cc(C(F)(F)F)c(-c2cc(NC(CO)Cc3ccccc3)nc(N3CCOCC3)n2)cn1 (racemic) | – | 9.02 | – | – | Kp at 5 min [5]: 1.2; Kp at 1 h [6]: 0.93
18 | Nc1cc(C(F)(F)F)c(-c2cc(N3CCNC3=O)nc(N3CCOCC3)n2)cn1 | – | 0.431 | – | – | logD [28]: 2.6
